Consider two compounds from patent US20090176807A1, “GLUCOCORTICOID MIMETICS, METHODS OF MAKING THEM, PHARMACEUTICAL COMPOSITIONS, AND USES THEREOF” (priority 2005, published 2009).

Structures are written as SMILES.

For data set [1], the target named is T1, human glucocorticoid receptor (GR) complex (Homo sapiens, UniProt P04150).
T1 construct: made in house; host or cells: insect expression system (baculovirus lysate)
T1 sequence (P04150 1-777): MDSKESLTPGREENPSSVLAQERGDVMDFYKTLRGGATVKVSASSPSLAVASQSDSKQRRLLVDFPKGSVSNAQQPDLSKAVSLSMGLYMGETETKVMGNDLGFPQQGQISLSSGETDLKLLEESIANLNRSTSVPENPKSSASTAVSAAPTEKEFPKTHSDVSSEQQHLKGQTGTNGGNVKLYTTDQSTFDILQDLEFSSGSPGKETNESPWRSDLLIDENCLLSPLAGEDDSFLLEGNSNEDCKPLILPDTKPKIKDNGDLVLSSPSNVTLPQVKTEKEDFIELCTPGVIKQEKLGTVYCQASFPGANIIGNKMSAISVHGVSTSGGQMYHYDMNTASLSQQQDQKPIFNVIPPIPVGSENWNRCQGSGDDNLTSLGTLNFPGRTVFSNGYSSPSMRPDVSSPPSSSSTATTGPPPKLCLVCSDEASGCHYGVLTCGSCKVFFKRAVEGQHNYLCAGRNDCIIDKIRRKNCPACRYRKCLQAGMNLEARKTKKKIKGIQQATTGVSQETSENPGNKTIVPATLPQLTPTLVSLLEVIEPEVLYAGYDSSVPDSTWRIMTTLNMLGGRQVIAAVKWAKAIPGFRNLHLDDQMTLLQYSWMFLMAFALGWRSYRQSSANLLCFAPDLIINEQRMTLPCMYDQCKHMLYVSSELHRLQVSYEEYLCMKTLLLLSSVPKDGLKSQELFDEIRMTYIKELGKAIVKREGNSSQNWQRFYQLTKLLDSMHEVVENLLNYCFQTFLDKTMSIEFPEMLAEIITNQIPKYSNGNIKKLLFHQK
Kind of data set: Glucocorticoid receptor competitive binding assay (fluorescence polarization). Conditions: competition with TAMRA-labeled dexamethasone, result in words only. How it is done: Compounds of the invention were evaluated for binding to the steroid receptor by a fluorescence polarization competitive binding assay.
The wavelengths for maximum excitation and emission of the fluorescent probe should first be measured. An example of such a probe is rhodamine (TAMRA)-labeled dexamethasone.
The affinity of the probe for the steroid receptor was then determined in a titration experiment. The fluorescence polarization value of the probe in assay buffer was measured on an SLM-8100 fluorometer using the excitation and emission maximum values described above. Aliquots of expression vector lysate were added and fluorescence polarization was measured after each addition until no further change in polarization value was observed. Non-linear least squares regression analysis was used to calculate the dissociation constant of the probe from the polarization values obtained for lysate binding to the probe.
This assay uses fluorescence polarization (FP) to quantitate the ability of test compounds to compete with tetramethyl rhodamine (TAMRA)-labeled dexamethasone for binding to a human glucocorticoid receptor (GR) complex prepared from an insect expression system. The assay buffer was: 10 mM TES, 50 mM KCl, 20 mM Na2MoO4.2H2O, 1.5 mM EDTA, 0.04% w/v CHAPS, 10% v/v glycerol, 1 mM dithiothreitol, pH 7.4. Test compounds were dissolved to 1 mM in neat DMSO and then further diluted to 10× assay concentration in assay buffer supplemented with 10% v/v DMSO. Test compounds were serially diluted at 10× assay concentrations in 10% DMSO-containing buffer in 96-well polypropylene plates. Binding reaction mixtures were prepared in 96-well black Dynex microtiter plates by sequential addition of the following assay components to each well: 15 μL of 10× test compound solution, 85 μL of GR-containing baculovirus lysate diluted 1:170 in assay buffer, and 50 μL of 15 nM TAMRA-labeled dexamethasone. Positive controls were reaction mixtures containing no test compound; negative controls (blanks) were reaction mixtures containing 0.7 μM to 2 μM dexamethasone. […] IC50 values were determined by iterative non-linear curve fitting of the FP signal data to a 4-parameter logistic equation.
(In general: Fluorescence polarisation rises when a labelled molecule tumbles more slowly, as on binding a larger partner.)

Consider `CC(C)(CC(O)(Cn1cc(Cl)c(=O)c2cnccc21)C(F)(F)F)c1cccc2c1OCC2` (stereo not shown) [3-Chloro-1-[4-(2,3-dihydrobenzofuran-7-yl)-2-hydroxy-4-methyl-2-trifluoromethylpentyl]-1H-[1,6]naphthyridin-4-one], for which the melting point (usually the temperature, or range, at which the solid turns liquid) was in the range of 158 to 160 °C. Also, the “activity in the GR binding assay” value in data set [1] was “potent activity”.

With `CC(C)(CC(O)(Cn1cc(Br)c(=O)c2sccc21)C(F)(F)F)c1cccc2c1OCO2` (stereo not shown) [4-(4-Benzo[1,3]dioxol-4-yl-2-hydroxy-4-methyl-2-trifluoromethylpentyl)-6-bromo-4H-thieno[3,2-b]pyridin-7-one], the melting point lay within 197 to 198 °C. For the same compound, the “activity in the GR binding assay” value in data set [1] was “potent activity”.
